Reference: patent US9572785B2, “DP2 antagonist and uses thereof” (Brickell Biotech, Inc., priority 2009, dated 2017)
Read-outs that look alike come from different tables or passages of the source.

Experiments:
mouse DP2 receptor = target: T1, mouse DP2 receptor (Mus musculus, UniProt Q9Z2J6); assay: DP2 radioligand membrane binding assay, mouse
T1 construct: expressed in transfected cells
T1 sequence (Q9Z2J6 1-382): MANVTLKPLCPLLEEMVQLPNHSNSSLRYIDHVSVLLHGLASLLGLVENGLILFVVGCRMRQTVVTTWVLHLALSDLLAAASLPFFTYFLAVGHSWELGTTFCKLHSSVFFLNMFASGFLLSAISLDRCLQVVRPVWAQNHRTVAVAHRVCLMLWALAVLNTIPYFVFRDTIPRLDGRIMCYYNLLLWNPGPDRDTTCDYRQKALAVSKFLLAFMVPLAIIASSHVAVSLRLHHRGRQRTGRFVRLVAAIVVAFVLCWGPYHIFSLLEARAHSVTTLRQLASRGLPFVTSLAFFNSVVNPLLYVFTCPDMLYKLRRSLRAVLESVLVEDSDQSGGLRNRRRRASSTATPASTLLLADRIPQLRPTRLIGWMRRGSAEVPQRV
Description: (§1) HEK293 cells stably expressing recombinant human DP2 are resuspended in 10 mM Hepes, 7.4 containing 1 mM DTT, lysed and centrifuged at 75,000×g to pellet the membranes. The membranes are resuspended in 10 mM Hepes, 7.4 containing 1 mM DTT and 10% glycerol to approximately 5 mg protein/ml. […] The reactions are terminated by rapid filtration through Whatman GF/C glass fibre filter plates. […] After harvesting, the filter plates are washed 3 times with 1 ml cold Wash Buffer then dried. Scintillant is then added to the plates and the radioactivity retained on the filters is determined on a Packard TopCount (Perkin Elmer). Specific binding is determined as total radioactive binding minus non-specific binding in the presence of 10 μM PGD2. IC50s were determined using GraphPad prism analysis of drug titration curves. Mouse, rat and guinea pig DP2 receptors were also investigated.

guinea pig DP2 receptor = target: T2, guinea pig DP2 receptor (Cavia porcellus, UniProt H0W1T0); assay: DP2 radioligand membrane binding assay, guinea pig
T2 sequence (H0W1T0 1-391): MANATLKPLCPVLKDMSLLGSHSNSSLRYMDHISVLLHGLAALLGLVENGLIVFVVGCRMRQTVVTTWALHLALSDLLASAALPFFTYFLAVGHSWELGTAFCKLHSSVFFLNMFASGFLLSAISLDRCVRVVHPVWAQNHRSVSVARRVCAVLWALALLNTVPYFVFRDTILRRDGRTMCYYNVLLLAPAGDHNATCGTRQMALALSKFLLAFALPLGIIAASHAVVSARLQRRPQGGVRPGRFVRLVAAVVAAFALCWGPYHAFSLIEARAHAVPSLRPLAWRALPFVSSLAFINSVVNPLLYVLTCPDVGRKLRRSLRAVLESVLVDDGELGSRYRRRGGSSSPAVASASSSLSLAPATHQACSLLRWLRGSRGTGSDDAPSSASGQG
Description: as §1

in vivo = conditions: mouse, plasma, po, 10 mg/kg
DP2 receptor [1] = target: T3, DP2 receptor (Homo sapiens, UniProt Q9Y5Y4); assay: In vitro DP2/CRTH2 radioligand binding assay ([3H]PGD2), human; set-up: expressed in transfected cells
T3 sequence (Q9Y5Y4 1-395): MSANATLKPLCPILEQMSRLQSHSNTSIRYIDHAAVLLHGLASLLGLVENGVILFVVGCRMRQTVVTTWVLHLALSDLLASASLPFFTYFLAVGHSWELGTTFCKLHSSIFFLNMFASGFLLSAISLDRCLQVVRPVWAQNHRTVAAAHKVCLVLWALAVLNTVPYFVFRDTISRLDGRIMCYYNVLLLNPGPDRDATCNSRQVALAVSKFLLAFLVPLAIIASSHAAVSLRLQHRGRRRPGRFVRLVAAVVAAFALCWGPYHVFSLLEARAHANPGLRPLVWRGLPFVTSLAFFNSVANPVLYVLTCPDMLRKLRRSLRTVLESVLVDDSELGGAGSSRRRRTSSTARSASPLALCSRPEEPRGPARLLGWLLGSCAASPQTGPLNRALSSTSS
Description: as §1

DP2 receptor [2] = target: T3, DP2 receptor; assay: Whole blood eosinophil shape change (ESC) assay, human; assay type: cell-based; set-up: endogenous in cells; host or cells: eosinophils in human whole blood
Description: Blood is drawn from consenting human volunteers in EDTA vacutainer tubes and used within 1 hr of draw. […] The blood is vortexed and incubated at 37° C. for 5 minutes. 5 μl of 1 μM PGD2 in PBS is added for a final concentration of 50 nM and the tubes briefly vortexed. The reactions are incubated for exactly 5 minutes at 37° C. and then terminated by placing the tubes on ice and immediately adding 250 μl of ice-cold 1:4 diluted Cytofix (BD Biosciences). The reactions are transferred to 12×75 mM polystyrene round bottom tubes and the red blood cells lysed by the addition of 3 ml ammonium chloride lysing solution (150 mM NH4Cl, 10 mM KHCO3, 0.1 mM EDTA disodium salt) and incubation at room temperature for 15 minutes. The cells are pelleted by spinning at 1300 rpm for 5 minutes at 4° C. and washed once with 3 ml ice-cold PBS. The cells are resuspended in 0.2 ml of ice-cold 1:4 diluted Cytofix (BD Biosciences) and analyzed on a FACSCalibur (BD Biosciences) within 2 hours. Eosinophils were gated on the basis of autofluorescence in the FL2 channel and shape change on 500 eosinophils was assayed by forward scatter and side scatter analysis. The specific change in shape induced by PGD2 was calculated as the difference between the percentage of high forward scatter eosinophils in the presence and absence of PGD2.

CCN(Cc1cc(C(F)(F)F)ccc1-c1cc(CC(=O)O)ccc1OC)C(=O)NCc1ccccc1 [Compound 1, [2′-(3-benzyl-1-ethyl-ureidomethyl)-6-methoxy-4′-trifluoromethyl-biphenyl-3-yl]-acetic acid]
IC50 (mouse DP2 receptor; mouse DP2, membrane binding, read-out: average IC50, inhibition of radiolabeled PGD2 binding): 7.8 nM | IC50 (mouse DP2 receptor; mouse DP2 receptor, in the presence of 0.2% mouse serum albumin, read-out: IC50, radioligand membrane binding): 20.1 nM | IC50 (guinea pig DP2 receptor; average IC50, inhibition of radiolabeled PGD2 binding, guinea pig DP2, membrane binding): 4.9 nM | IC50 (guinea pig DP2 receptor; guinea pig DP2 receptor, in the presence of 0.2% guinea pig serum albumin, read-out: IC50, radioligand membrane binding): 22.9 nM | concentration at 1 h (in vivo): 280 nM | concentration at 2 h (in vivo): 150 nM | concentration at 4 h (in vivo): 70 nM | concentration at 8 h (in vivo): 30 nM | concentration at 24 h (in vivo): < 8 nM | IC50 (DP2 receptor [1]; human DP2, membrane binding, read-out: average IC50, inhibition of radiolabeled PGD2 binding): 4.9 nM | IC50 (DP2 receptor [1]; with human serum albumin, read-out: IC50, DP2 receptor binding): 12.2 nM | IC90 (DP2 receptor [2]): 7.5 nM | IC50 (DP2 receptor [2]; read-out: IC50, PGD2-induced eosinophil shape change): 2.7 nM
